Test results: US9164109B2, “Use of probes for unbound metabolites” (priority 2006, dated 2015)

Biological target: T1, HSA (Homo sapiens, UniProt P02768)
T1 construct: from tissue; host or cells: blood plasma of healthy adult donors, diluted to 1%
Assay: Equilibrium-binding model of UCB and HSA
Details: value used to calculate model [UCBf], [HSA]=6.5 μM, FIG. 2
Procedure: Investigations of the effects of FFA on our UCB probes are necessary because the probes are constructed from FABP mutants and FFA are abundant in plasma. Interference testing of every possible component of plasma, however, is not feasible. Therefore UCBf was measured in samples of diluted plasma, from 6 healthy adult donors, titrated with UCB. Because the [UCBf] is determined by the UCB:HSA ratio, the [HSA] of each plasma sample was measured using a Bromcresol Green Albumin Determination Kit from Sigma-Aldrich. HSA concentrations were similar for all samples and ranged from 620 to 680 μM. Plasma [FFAu] was measured with ADIFAB2 and ranged from 1.0 to 3.6 nM. The L24P19C7 probe at 0.5 μM was used to measure [UCBf] in 1% plasma (i.e., 6.2 to 6.8 μM HSA) titrated with UCB (FIG. 2). This probe has the following mutations with reference to rat Intestinal Fatty Acid Binding Protein (SEQ ID NO: 4): Y14R M18L L38V V60R A72L A73F R106C Q115R and Y117D. Without the addition of UCB, all samples yielded a [UCBf] of nearly zero, in good agreement with the 0 to 1 nM [UCBf] expected for a healthy adult. […] Indeed, the increase was consistent with the change in [UCBf] predicted using the equilibrium-binding model, confirming the accuracy of the probe in plasma.

T1 sequence (P02768 25-609): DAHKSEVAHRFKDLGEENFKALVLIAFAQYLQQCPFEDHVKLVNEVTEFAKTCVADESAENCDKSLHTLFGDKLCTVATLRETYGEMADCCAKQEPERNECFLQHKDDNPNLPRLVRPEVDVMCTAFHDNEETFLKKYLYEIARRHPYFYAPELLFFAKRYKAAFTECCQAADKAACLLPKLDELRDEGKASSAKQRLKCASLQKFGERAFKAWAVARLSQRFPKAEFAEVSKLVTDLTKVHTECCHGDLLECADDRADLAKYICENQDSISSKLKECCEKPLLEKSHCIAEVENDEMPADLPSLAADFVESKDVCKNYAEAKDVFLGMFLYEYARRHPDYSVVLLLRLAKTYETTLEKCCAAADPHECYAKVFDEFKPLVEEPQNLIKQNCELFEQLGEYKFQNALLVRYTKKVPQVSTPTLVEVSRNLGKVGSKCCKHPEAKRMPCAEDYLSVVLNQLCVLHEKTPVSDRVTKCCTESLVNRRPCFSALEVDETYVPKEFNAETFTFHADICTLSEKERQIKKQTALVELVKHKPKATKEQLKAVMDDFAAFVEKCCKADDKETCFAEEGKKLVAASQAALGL

Kd: 19 nM
Structure (SMILES): C=CC1=C(C)/C(=C/c2[nH]c(Cc3[nH]c(/C=C4\NC(=O)C(C)=C4C=C)c(C)c3CCC(=O)O)c(CCC(=O)O)c2C)NC1=O [UCB, unconjugated bilirubin]
